# Source: patent US20080085833A1, “Use Of Glycerol As An Anti-Moss And/Or Anti-Lichen Agent” (priority 2004, published 2008)
# Test system: mosses and lichens
# Assay: Anti-moss and anti-lichen effect of glycerol-based compositions, overall observation on mosses and lichens
# Assay type: in vivo
# Text: An anti-moss and/or anti-lichen composition is first prepared by solubilizing the required amount of glycerol in water at room temperature, in an appropriate vessel, to give a solution containing 99%, 65% or 20% by weight of glycerol.
# The anti-moss and/or anti-lichen composition is maintained at this same temperature in a vessel fitted with a nozzle to enable the product to be sprayed onto a vertical or horizontal surface.
# A sufficient amount of anti-moss and/or anti-lichen composition containing 99%, 65% or 20% by weight of glycerol, with or without gluconic acid, is applied by the process of the invention to 3 different surfaces covered with crustaceous lichens, gelatinous lichens and mosses.
# For the series of 3 treatments, visual observations were made periodically after treatment with the glycerol compositions described, and then at regular intervals for 3 weeks.
structure (smiles),measurement,setting,value
"OCC(O)CO [Pure glycerol, glycerol]",anti-moss and/or anti-lichen activity on dilution,glycerol diluted to 20%,without losing its anti-moss and/or anti-lichen activity
same,efficacy for removing mosses and/or lichens,pure glycerol,effective
